The text below walks through data of patent US12441730B2, “PRMT5 inhibitors” (Merck Sharp & Dohme LLC, priority 2019, dated 2025).

Assay [1] addresses T1, Full-length (FL)-PRMT5-MEP50 enzyme complex (Homo sapiens, UniProt O14744).
T1 construct: Full-length (FL)-PRMT5-MEP50 enzyme complex (recombinant proteins from baculovirus-transfected Sf21 cells: FL-PRMT5; MW=73837 kDa and FL-MEP50; MW=38614); made in house; host or cells: baculovirus-transfected Sf21 cells
Description: PRMT5-MEP50 Enzyme Methylation Assay (Version B). Format: biochemical. How it is done:
PRMT5-MEP50 Enzyme Methylation Assay (Version B)
PRMT5/MEP50 biochemical assay is a direct measurement of the methylation activity of the enzyme complex on a short peptide substrate derived from the N-terminus of H4 histone. Methylation experiment was performed with recombinant protein. The assessment of inhibitory effect (IC50) of small molecules was measured by the effectiveness of the compounds to inhibit this reaction.
In this assay, the potency (IC50) of each compound was determined from a twenty-point (1:2 serial dilution; top compound concentration of 100000 nM) titration curve using the following outlined procedure. To each well of a white ProxiPlus 384 well-plate, 100 nL of compound (1% DMSO in final assay volume of 10 μL) was dispensed, followed by the addition of 8 μL of 1× assay buffer (50 mM Bicine pH 8.0, 1 mM DTT, 0.004% Tween20, 0.01% BSA) containing 0.5 nM of Full-length (FL)-PRMT5-MEP50 enzyme complex (recombinant proteins from baculovirus-transfected Sf21 cells: FL-PRMT5; MW=[…] and FL-MEP50; MW=38614). Plates were sealed and placed in a 37° C. humidified chamber for 30 minutes pre-incubation with compounds. Subsequently, each reaction was initiated by the addition of 2 μL 1× assay buffer containing 75 nM biotinylated H4R3 (Me1) peptide, and 15 μM S-(5′-Adenosyl)-L-Methionine Chloride (SAM). The final reaction in each well of 10 μL consists of 0.5 nM PRMT5-MEP50, 75 nM biotinylated-peptide, and 15 μM SAM. Methylation reactions were allowed to proceed for 150 minutes in a sealed plate at 37° C. Reactions were immediately quenched by the addition of 1 μL of 10% formic acid. Plates were then frozen and shipped to SAMDI™ Tech Inc. to determine the percent conversion from […]. EC50 values were determined by non-linear regression according to models for either sigmoidal (4 parameters) or biphasic (7 parameters) dose-response curves.

Assay [2] concerns symmetric dimethylation of arginine (SDMA) of PRMT5 substrates in MCF-7 cells. Briefly: PRMT5 Cell Target Engagement (TE) Assay. In kind it is cell-based. The conditions noted are these: 3 days treatment, SDMA high content imaging. The essentials:
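MCF-7 cells treated 3 days at 37 °C with a ten-point 1:3 titration from 10000 nM. Fixed cells immunostained with anti-SDMA and Alexa488 secondary; nuclear fluorescence quantified by high-content imaging versus DMSO wells, with IC50 from a 4-parameter fit.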

For assay [3], the target named is T1, Full-length (FL)-PRMT5-MEP50 enzyme complex. Briefly: PRMT5-MEP50 Enzyme Methylation Assay (Version A). In kind it is biochemical. The essentials: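 Compound was pre-incubated with enzyme for 60 min, then reacted 150 min at 37° C. at final 1.0 nM PRMT5-MEP50, 15 μM SAM and 75 nM biotinylated H4R3(Me1) peptide, in 50 mM Bicine pH 8.0 with 1% DMSO. SAMDI mass-spectrometric readout of Me1→Me2 conversion. EC50 from 4- or 7-parameter regression.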

[4] abbreviates: second value of 7 parameter biphasic fit, read-out: Enzyme Methylation Assay Version B (EC50 2).
[5] abbreviates: single EC50 = 4 parameter single site sigmoidal fit, EC50 1 = first value of 7 parameter biphasic fit, read-out: Enzyme Methylation Assay Version B (EC50 or EC50 1).
The mark [6] stands for this setting: second value of 7 parameter biphasic fit, read-out: Enzyme Methylation Assay Version A (EC50 2).
Setting [7] is: single EC50 = 4 parameter single site sigmoidal fit, EC50 1 = first value of 7 parameter biphasic fit, read-out: Enzyme Methylation Assay Version A (EC50 or EC50 1).

T1 sequence (O14744 whole entry): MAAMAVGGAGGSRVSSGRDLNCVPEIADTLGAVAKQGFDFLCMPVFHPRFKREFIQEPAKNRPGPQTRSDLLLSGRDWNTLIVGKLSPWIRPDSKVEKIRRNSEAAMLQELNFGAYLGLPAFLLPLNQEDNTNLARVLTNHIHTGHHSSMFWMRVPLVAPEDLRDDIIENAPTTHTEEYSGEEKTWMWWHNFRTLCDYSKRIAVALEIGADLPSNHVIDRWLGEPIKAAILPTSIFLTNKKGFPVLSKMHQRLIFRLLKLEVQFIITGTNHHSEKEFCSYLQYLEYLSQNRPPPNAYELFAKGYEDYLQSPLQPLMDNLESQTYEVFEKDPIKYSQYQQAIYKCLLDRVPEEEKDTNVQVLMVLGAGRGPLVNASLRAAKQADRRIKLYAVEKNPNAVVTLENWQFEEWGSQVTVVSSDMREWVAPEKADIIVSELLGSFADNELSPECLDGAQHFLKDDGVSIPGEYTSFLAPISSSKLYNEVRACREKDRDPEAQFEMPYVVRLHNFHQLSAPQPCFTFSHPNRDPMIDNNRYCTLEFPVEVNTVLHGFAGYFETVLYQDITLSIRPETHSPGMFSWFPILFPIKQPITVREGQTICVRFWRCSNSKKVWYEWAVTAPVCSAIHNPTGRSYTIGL
T1 sequence (Q9BQA1 whole entry partner): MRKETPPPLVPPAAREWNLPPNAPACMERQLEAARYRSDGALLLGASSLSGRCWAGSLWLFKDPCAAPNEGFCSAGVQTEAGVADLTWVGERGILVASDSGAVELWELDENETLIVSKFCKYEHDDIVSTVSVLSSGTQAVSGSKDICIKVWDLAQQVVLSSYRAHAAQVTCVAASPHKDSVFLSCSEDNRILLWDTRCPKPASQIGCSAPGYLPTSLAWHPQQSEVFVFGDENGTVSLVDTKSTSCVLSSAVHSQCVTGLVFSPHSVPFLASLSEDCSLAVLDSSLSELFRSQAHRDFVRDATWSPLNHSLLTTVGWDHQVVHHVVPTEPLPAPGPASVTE

By EC50 is commonly meant the concentration giving half of the maximal effect. As for `CCOc1cc(C(=O)N2C3CCC2COC3)ccc1C(=O)N1CCC2(Cc3ccccc3CN2)C(O)C1` (single isomer, unassigned) [Example 86, A diastereomer of {3-ethoxy-4-[(3′-hydroxy-1,4-dihydro-1′H,2H-spiro[isoquinoline-3,4′-piperidin]-1′-yl)carbonyl]phenyl}(3-oxa-8-azabicyclo[3.2.1]oct-8-yl)methanone], the EC50 in assay [1] (setting [4]) was 28800 nM; in assay [1] (setting [5]), 82.2 nM; in assay [2], 1470 nM.

With `CCOc1cc(C(=O)N2C3CCC2COC3)ccc1C(=O)N1CCC2(Cc3ccccc3CN2)C(O)C1` (single isomer, unassigned) [Example 87, A diastereomer of {3-ethoxy-4-[(3′-hydroxy-1,4-dihydro-1′H,2H-spiro[isoquinoline-3,4′-piperidin]-1′-yl)carbonyl]phenyl}(3-oxa-8-azabicyclo[3.2.1]oct-8-yl)methanone], the EC50 in assay [1] (setting [4]) amounted to 671 nM; in assay [1] (setting [5]), 3.54 nM; in assay [2] it was 9.16 nM.

On to `CCOc1cc(C(=O)N2C3CCC2COC3)ccc1C(=O)N1CCC2(Cc3ccccc3CN2)C(O)C1` (single isomer, unassigned) [Example 88, A diastereomer of {3-ethoxy-4-[(3′-hydroxy-1,4-dihydro-1′H,2H-spiro[isoquinoline-3,4′-piperidin]-1′-yl)carbonyl]phenyl}(3-oxa-8-azabicyclo[3.2.1]oct-8-yl)methanone], for which the EC50 worked out at 964 nM in assay [1] (setting [5]) and 4290 nM in assay [2] (Homo sapiens, MCF7, 72 h).

Turning to `COc1nccc(-c2cc([C@@H](C)OC)c3nc(C(=O)N4CC[C@]5(Cc6ccccc6CN5)[C@H](O)C4)cn3c2)n1` [Example 240, [(3R,3′R)-3′-hydroxy-1,4-dihydro-1′H,2H-spiro[isoquinoline-3,4′-piperidin]-1′-yl]{8-[(1R)-1-methoxyethyl]-6-(2-methoxy-4-pyrimidinyl)imidazo[1,2-a]pyridin-2-yl}methanone], the EC50 stood at 112 nM in assay [3] (setting [6]); 0.376 nM in assay [3] (setting [7]); 21 nM in assay [2] (Homo sapiens, MCF7, 72 h).

Take `CO[C@H](C)c1cc(-c2cncs2)cn2cc(C(=O)N3CC[C@]4(Cc5ccccc5CN4)[C@H](O)C3)nc12` [Example 241, [(3R,3′R)-3′-hydroxy-1,4-dihydro-1′H,2H-spiro[isoquinoline-3,4′-piperidin]-1′-yl]{8-[(1R)-1-methoxyethyl]-6-(1,3-thiazol-5-yl)imidazo[1,2-a]pyridin-2-yl}methanone]: the EC50 is 211 nM in assay [3] (setting [6]); 0.932 nM in assay [3] (setting [7]); 4.87 nM in assay [2] (Homo sapiens, MCF7, 72 h).

With `CO[C@H](C)c1cc(-c2ccnn2C)cn2cc(C(=O)N3CC[C@]4(Cc5ccccc5CN4)[C@H](O)C3)nc12` [Example 242, [(3R,3′R)-3′-hydroxy-1,4-dihydro-1′H,2H-spiro[isoquinoline-3,4′-piperidin]-1′-yl]{8-[(1R)-1-methoxyethyl]-6-(1-methyl-1H-pyrazol-5-yl)imidazo[1,2-a]pyridin-2-yl}methanone], the half-maximal effective concentration (EC50) in assay [3] (setting [7]) amounted to 0.7 nM; in assay [2] (Homo sapiens, MCF7, 72 h), 1.81 nM.

Consider `CO[C@H](C)c1cc(-c2ccnn2C(C)C)cn2cc(C(=O)N3CC[C@]4(Cc5ccccc5CN4)[C@H](O)C3)nc12` [Example 243, [(3R,3′R)-3′-hydroxy-1,4-dihydro-1′H,2H-spiro[isoquinoline-3,4′-piperidin]-1′-yl]{6-(1-isopropyl-1H-pyrazol-5-yl)-8-[(1R)-1-methoxyethyl]imidazo[1,2-a]pyridin-2-yl}methanone], for which the EC50 in assay [3] (setting [7]) turned out to be 1.17 nM; in assay [2] (Homo sapiens, MCF7, 72 h), 3.59 nM.

Turning to `CO[C@H](C)c1cc(-c2sc(C)nc2C)cn2cc(C(=O)N3CC[C@]4(Cc5ccccc5CN4)[C@H](O)C3)nc12` [Example 244, {6-(2,4-dimethyl-1,3-thiazol-5-yl)-8-[(1R)-1-methoxyethyl]imidazo[1,2-a]pyridin-2-yl}[(3R,3′R)-3′-hydroxy-1,4-dihydro-1′H,2H-spiro[isoquinoline-3,4′-piperidin]-1′-yl]methanone], the EC50 in assay [3] (setting [7]) was found to be 0.675 nM; in assay [2] (Homo sapiens, MCF7, 72 h), 1.68 nM.

As to `CO[C@H](C)c1cc(-c2cnn(C)c2C)cn2cc(C(=O)N3CC[C@]4(Cc5ccccc5CN4)[C@H](O)C3)nc12` [Example 245, {6-(1,5-dimethyl-1H-pyrazol-4-yl)-8-[(1R)-1-methoxyethyl]imidazo[1,2-a]pyridin-2-yl}[(3R,3′R)-3′-hydroxy-1,4-dihydro-1′H,2H-spiro[isoquinoline-3,4′-piperidin]-1′-yl]methanone], the EC50 in assay [3] (setting [7]) worked out at 1.24 nM; in assay [2] (Homo sapiens, MCF7, 72 h) it was 2.65 nM.

As for `CO[C@H](C)c1cc(-c2conc2C)cn2cc(C(=O)N3CC[C@]4(Cc5ccccc5CN4)[C@H](O)C3)nc12` [Example 246, [(3R,3′R)-3′-hydroxy-1,4-dihydro-1′H,2H-spiro[isoquinoline-3,4′-piperidin]-1′-yl]{8-[(1R)-1-methoxyethyl]-6-(3-methyl-4-isoxazolyl)imidazo[1,2-a]pyridin-2-yl}methanone], the EC50 in assay [3] (setting [7]) turned out to be 0.977 nM; in assay [2] (Homo sapiens, MCF7, 72 h), 6.31 nM.

For the compound `CO[C@H](C)c1cc(CN2CCCC2)cn2cc(C(=O)N3CC[C@]4(Cc5ccccc5CN4)[C@H](O)C3)nc12` [Example 247, [(3R,3′R)-3′-hydroxy-1,4-dihydro-1′H,2H-spiro[isoquinoline-3,4′-piperidin]-1′-yl]{8-[(1R)-1-methoxyethyl]-6-(1-pyrrolidinylmethyl)imidazo[1,2-a]pyridin-2-yl}methanone], the concentration giving a half-maximal response (EC50) is 646 nM in assay [3] (setting [6]); 0.661 nM in assay [3] (setting [7]); 75.3 nM in assay [2] (Homo sapiens, MCF7, 72 h).

As to `COCc1nc(C)cn2cc(C(=O)N3CC[C@]4(Cc5ccccc5CN4)[C@H](O)C3)nc12` [Example 250, [(3R,3′R)-3′-hydroxy-1,4-dihydro-1′H,2H-spiro[isoquinoline-3,4′-piperidin]-1′-yl][8-(methoxymethyl)-6-methylimidazo[1,2-a]pyrazin-2-yl]methanone], the EC50 in assay [3] (setting [7]) turned out to be 610 nM; in assay [2] (Homo sapiens, MCF7, 72 h), 1730 nM.

For the compound `COc1nc2nc(C(=O)N3CC[C@]4(Cc5ccccc5CN4)[C@H](O)C3)cn2cc1C1CC1` [Example 251, (6-cyclopropyl-7-methoxyimidazo[1,2-a]pyrimidin-2-yl)[(3R,3′R)-3′-hydroxy-1,4-dihydro-1′H,2H-spiro[isoquinoline-3,4′-piperidin]-1′-yl]methanone], the EC50 in assay [3] (setting [7]) was found to be 547 nM; in assay [2] (Homo sapiens, MCF7, 72 h), 1850 nM.

In the case of `Cc1cn2cc(C(=O)N3CC[C@]4(Cc5ccccc5CN4)[C@H](O)C3)nc2c(Cl)n1` [Example 252, (8-chloro-6-methylimidazo[1,2-a]pyrazin-2-yl)[(3R,3′R)-3′-hydroxy-1,4-dihydro-1′H,2H-spiro[isoquinoline-3,4′-piperidin]-1′-yl]methanone], the EC50 in assay [3] (setting [6]) is 7080 nM; in assay [3] (setting [7]) it was 11.7 nM; in assay [2] (Homo sapiens, MCF7, 72 h) it was 680 nM.

Turning to `CC1OC(=O)Nc2cc(C(=O)N3CC[C@]4(Cc5ccccc5CN4)[C@H](O)C3)ccc21` (stereo partly drawn) [compound 171, 7-{[(3R,3′R)-3′-hydroxy-1,4-dihydro-1′H,2H-spiro[isoquinoline-3,4′-piperidin]-1′-yl]carbonyl}-4-methyl-1,4-dihydro-2H-3,1-benzoxazin-2-one], the EC50 in assay [3] (setting [6]) turned out to be 733 nM; in assay [3] (setting [7]), 0.929 nM; in assay [2] (Homo sapiens, MCF7, 72 h) it was 6.47 nM.

Turning to “A diastereomer of [(3R,3′R)-3′- hydroxy-1,4-dihydro-1′H,2H- spiro[isoquinoline-3,4′-piperidin]-1′- yl][6-isopropyl-8-(1- methoxyethyl)imidazo[1,2- a]pyridin-2-yl]methanone [Example 85]”, the EC50 in assay [3] (setting [6]) was found to be 3060 nM; in assay [3] (setting [7]), 5.6 nM; in assay [2], 115 nM.
